Assay [1] relates to TRKA. Nature of the assay: TRKA Enzymatic Assay. The class given is biochemical. Put shortly: (§1)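 Reaction contained 0.58 nM TRKA, 1 mM ATP, 500 nM biotinylated TK substrate and 62.5 nM SEB reagent in HEPES 50 mM pH 7.0 with 10 mM MgCl2, 1 mM DTT and 0.1 mM orthovanadate, 0.5% DMSO, ATP-initiated. After 60 min at room temperature, the TR-FRET 665/620 nm ratio was read. IC50 was fitted from percent control activity versus log concentration, with DMSO and no-ATP wells as controls.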

Assay [2] deals with pseudo-kinase domain (JH2) of human V617F mutant JAK2 (Homo sapiens (Human), UniProt O60674, F794H/V617F/W659A/W777A). Nature of the assay: JAK2 LanthaScreen JH2-V617F Binding Assay. As to conditions: read-out: JH2 V617F Bind IC50. Put shortly:
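Biotinylated His-Avi JAK2 JH2 (aa 536-812, V617F plus W659A/W777A/F794H; 0.26 nM) incubated 1 h at 25 °C with compound, 50 nM fluorescent JH2 tracer and 0.25 nM streptavidin-Tb in Tris pH 7.5 buffer. TR-FRET tracer displacement read; nonspecific binding with 2 mM ATP; IC50 from four-parameter fit.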

Assay [3] concerns pSTAT5 in SET-2 cells in whole blood. Description: pSTAT5 SET-2 Whole Blood MSD Assay. The format is cell-based. As to conditions: Homo sapiens, 2 hour incubation, read-out: SET2 WB IC50. The procedure: SET-2 cells shipped from ABS, RPMI1640 medium, Fetal Bovine Serum from Gibco, Phospho-STAT5a,b Whole Cell Lysate Kit from Mesoscale, Retronectin (Recombinant Human Fibronectin Fragment) from TaKaRa, 96 well cell culture plate flat bottom from Corning, lysis buffer from Cell Signaling Technology, and sterile PBS from Gibco. Whole Blood from by BioIVT.
SET-2 cells were cultured in RPMI media with 20% FBS at 37° C. humidified incubator supplied with 5% CO2. On the day of the assay, 40 uL per well of diluted retronectin working solution was added to sterile 96-well clear flat bottom tissue culture plates (1:200 dilution of retronectin in sterile PBS) and incubated at 37 C for 1 hour. After 1 hour, the retronectin working solution was aspirated and SET-2 cells were seeded at 100,000/well in RPMI+20% FBS. Cells were incubated overnight at 37° C. and 5% CO2. The next day, the medium was removed and 40 μL of diluted compounds in serum-free RPMI and whole blood was added to the cells for a 2 hour incubation at 37° C. and 5% CO2. The compound starting concentration is 20 μM and 2.5 fold serial diluted down to 0.21 nM. The whole blood and compound mixture was then aspirated off using the BlueCat plate washer and washed 1× with PBS. Cells were lysed by adding 40 μL of 3× complete lysis buffer and shaken at room temperature for 45-60 minutes (complete lysis buffer consists of Cell Signaling Technology lysis buffer diluted to 3× and supplemented with Mesoscale's protease inhibitor, phosphatase I inhibitor, and phosphatase II inhibitor). The pSTAT5 MSD plates were blocked by adding 150 μL of Blocker A solution per well to the MSD plates and incubated at room temperature with shaking at 400 rpm for one hour or longer. After blocking, plates were washed 3× with 300 μL/well of 1× Tris Wash Buffer. After lysis, added 25 μL per well of lysed sample was added to MSD plate and incubated with shaking at 4° C. wrapped in foil overnight. The next day, plates were washed again and 25 μL/well of diluted 1× Detection Antibody Solution, wrapped in foil, and incubated at room temperature with shaking at 400 rpm for 1 hour. Plates were then washed again and lastly, 150 μL/well of 1× Read Buffer T was added to all wells. Plates were analyzed on MSD Discovery within 5 minutes. […] Data analysis was performed in GraphPad Prism using a 4-parameter fit and data was reported as Average±SD.

The subject of assay [4] is FLT3. Nature of the assay: FLT3 Enzymatic Assay. The format is biochemical. The gist of the method:
(§2)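 Room-temperature HTRF kinase assay (665/620 nm ratio) with 0.011 nM FLT3, 1 mM ATP, 500 nM biotinylated TK substrate in HEPES pH 7.0 buffer with MgCl2 and DTT; 0.5% DMSO final. Read after 60 min incubation; IC50 fitted from percent control activity versus log concentration, no-ATP wells as negative control.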

Assay [5] has as its target TRKA (Homo sapiens (Human), UniProt P04629). Description: TRKA Enzymatic Assay. The class given is biochemical. As to conditions: 1 mM ATP. Put shortly: as §1
The target of assay [6] is FLT3 (Homo sapiens (Human), UniProt P36888). Nature of the assay: FLT3 Enzymatic Assay. The class given is biochemical. As to conditions: 1 mM ATP. Put shortly:
as §2

Some results are limits rather than exact numbers.

Sequence of TRKA (Homo sapiens (Human), UniProt P04629) (P04629 33-796, species assumed): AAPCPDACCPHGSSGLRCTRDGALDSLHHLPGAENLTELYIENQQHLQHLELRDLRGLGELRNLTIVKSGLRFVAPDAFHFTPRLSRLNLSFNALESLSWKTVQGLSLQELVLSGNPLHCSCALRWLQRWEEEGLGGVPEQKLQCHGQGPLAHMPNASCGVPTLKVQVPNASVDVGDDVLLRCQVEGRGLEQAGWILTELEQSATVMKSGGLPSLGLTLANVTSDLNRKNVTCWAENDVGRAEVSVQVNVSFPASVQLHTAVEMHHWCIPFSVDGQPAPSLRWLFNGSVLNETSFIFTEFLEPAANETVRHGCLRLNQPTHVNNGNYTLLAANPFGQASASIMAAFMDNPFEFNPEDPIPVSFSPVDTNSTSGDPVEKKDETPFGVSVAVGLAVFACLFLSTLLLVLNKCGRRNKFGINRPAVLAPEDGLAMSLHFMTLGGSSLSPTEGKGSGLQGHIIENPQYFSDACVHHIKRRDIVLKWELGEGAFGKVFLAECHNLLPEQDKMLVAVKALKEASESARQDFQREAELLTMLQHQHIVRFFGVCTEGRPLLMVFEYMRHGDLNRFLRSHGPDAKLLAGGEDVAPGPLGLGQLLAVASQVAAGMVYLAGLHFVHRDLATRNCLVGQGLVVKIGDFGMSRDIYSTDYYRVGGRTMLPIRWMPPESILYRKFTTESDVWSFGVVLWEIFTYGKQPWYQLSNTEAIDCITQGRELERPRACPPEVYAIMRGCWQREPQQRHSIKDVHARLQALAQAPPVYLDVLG
Sequence of FLT3 (Homo sapiens (Human), UniProt P36888) (P36888 27-993, species assumed): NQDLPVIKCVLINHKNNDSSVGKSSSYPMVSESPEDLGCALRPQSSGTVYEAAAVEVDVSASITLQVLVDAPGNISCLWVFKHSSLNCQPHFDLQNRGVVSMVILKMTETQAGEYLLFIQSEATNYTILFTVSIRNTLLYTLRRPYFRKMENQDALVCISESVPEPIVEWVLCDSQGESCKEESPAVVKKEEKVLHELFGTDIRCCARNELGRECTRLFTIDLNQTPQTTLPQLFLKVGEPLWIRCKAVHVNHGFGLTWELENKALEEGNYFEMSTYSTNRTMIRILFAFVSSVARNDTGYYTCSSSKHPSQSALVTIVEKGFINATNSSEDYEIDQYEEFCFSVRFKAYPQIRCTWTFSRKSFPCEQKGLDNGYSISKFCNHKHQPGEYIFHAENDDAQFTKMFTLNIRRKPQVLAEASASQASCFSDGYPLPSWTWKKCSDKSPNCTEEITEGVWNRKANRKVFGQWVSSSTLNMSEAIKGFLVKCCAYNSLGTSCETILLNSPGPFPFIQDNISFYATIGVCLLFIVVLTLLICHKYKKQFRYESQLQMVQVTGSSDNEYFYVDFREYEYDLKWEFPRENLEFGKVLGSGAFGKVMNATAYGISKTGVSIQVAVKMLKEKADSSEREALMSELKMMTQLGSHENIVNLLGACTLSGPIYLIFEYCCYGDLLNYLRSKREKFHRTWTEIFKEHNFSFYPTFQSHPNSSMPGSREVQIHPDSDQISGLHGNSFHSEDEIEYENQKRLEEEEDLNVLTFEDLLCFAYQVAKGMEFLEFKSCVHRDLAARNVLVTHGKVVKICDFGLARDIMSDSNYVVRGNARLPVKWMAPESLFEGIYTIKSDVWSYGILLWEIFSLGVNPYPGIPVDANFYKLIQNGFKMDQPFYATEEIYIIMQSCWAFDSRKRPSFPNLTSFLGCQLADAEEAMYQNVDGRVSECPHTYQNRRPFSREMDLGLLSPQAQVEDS
Sequence of pseudo-kinase domain (JH2) of human V617F mutant JAK2 (O60674 536-812 V617F/W659A/W777A/F794H): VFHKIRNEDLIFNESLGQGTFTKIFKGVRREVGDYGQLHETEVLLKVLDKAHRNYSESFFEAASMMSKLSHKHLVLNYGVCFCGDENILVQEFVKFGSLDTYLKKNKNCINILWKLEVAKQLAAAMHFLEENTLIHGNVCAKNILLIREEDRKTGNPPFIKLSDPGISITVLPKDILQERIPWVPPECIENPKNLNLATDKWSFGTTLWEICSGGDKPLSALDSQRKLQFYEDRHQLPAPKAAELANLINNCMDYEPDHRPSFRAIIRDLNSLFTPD

Regarding `COc1nn(C)cc1-c1[nH]c2ncc3c(c2c1-c1ccc2c(cnn2C)c1)n(C1CCOCC1)c(=O)n3C` [Comparative Example A, reference compound], in the assay with TRKA [1], the “Selectivity TRKA/JH2 V617F” value is on record as “** (selectivity of >500-fold to ≤1500-fold)”. In addition, the results for the IC50 in assay [2] and in assay [3] were no more than 10 nM and 5 to 7.5 µM, respectively. Also, the “Selectivity FLT3/JH2 V617F” value in the assay with FLT3 [4] is “* (selectivity of ≤500-fold)”.
For `[2H]C([2H])([2H])n1ncc2cc(-c3c(-c4cn(C)nc4OC)[nH]c4ncc5c(c34)n(C3CCOCC3)c(=O)n5C)ccc21` [Comparative Example B, reference compound], the IC50 on TRKA [5] was greater than 2500 nM; in assay [2], no more than 10 nM; in assay [3], 5 to 7.5 µM. Further, the “Selectivity TRKA/JH2 V617F” value with TRKA [1] was “** (selectivity of >500-fold to ≤1500-fold)”. Besides, in the assay with FLT3 [4], the “Selectivity FLT3/JH2 V617F” value is listed as “* (selectivity of ≤500-fold)”.
Consider `COc1nn(C)cc1-c1[nH]c2ncc3c(c2c1-c1ccc2c(cnn2C)c1)n([C@H]1CC[C@@H](CC#N)CC1)c(=O)n3C` [E, reference compound], for which, in the assay on TRKA [1], the “Selectivity TRKA/JH2 V617F” value is on record as “** (selectivity of >500-fold to ≤1500-fold)”. Further, the IC50 was no more than 10 nM in assay [2] and greater than 7.5 µM in assay [3]. Further, in the assay on FLT3 [4], the “Selectivity FLT3/JH2 V617F” value is recorded as “* (selectivity of ≤500-fold)”.
Consider `CCNC(=O)c1ccc(-c2[nH]c3ncc4c(c3c2-c2ccc3c(cnn3C(C)C)c2)n([C@@H]2CC[C@@H](NC(=O)OC)C2)c(=O)n4C)cc1F` [Example 6, Methyl ((1R,3R)-3-(7-(4-(ethylcarbamoyl)-3-fluorophenyl)-8-(1-isopropyl-1H-indazol-5-yl)-3-methyl-2-oxo-3,6-dihydroimidazo[4,5-d]pyrrolo[2,3-b]pyridin-1(2H)-yl)cyclopentyl)carbamate], for which the IC50 was 1250 to 2500 nM at TRKA [5], no more than 10 nM in assay [2], 2.5 to 5 µM in assay [3] and 1250 to 2500 nM on FLT3 [6]. Moreover, the “Selectivity TRKA/JH2 V617F” value with TRKA [1] is listed as “***** (selectivity of >5000-fold to ≤12500-fold)”. For the same compound, the “Selectivity FLT3/JH2 V617F” value with FLT3 [4] is reported as “***** (selectivity of >5000-fold to ≤12500-fold)”.
As for `COC(=O)N[C@@H]1CC[C@@H](n2c(=O)n(C)c3cnc4[nH]c(-c5ccc(C(=O)NC6CC6)c(F)c5)c(-c5ccc6c(cnn6C(C)C)c5)c4c32)C1` [Example 8, Methyl ((1R,3R)-3-(7-(4-(cyclopropylcarbamoyl)-3-fluorophenyl)-8-(1-isopropyl-1H-indazol-5-yl)-3-methyl-2-oxo-3,6-dihydroimidazo[4,5-d]pyrrolo[2,3-b]pyridin-1(2H)-yl)cyclopentyl)carbamate], the IC50 is greater than 2500 nM on TRKA [5], no more than 10 nM in assay [2], 5 to 7.5 µM in assay [3] and greater than 2500 nM at FLT3 [6]. In the assay with TRKA [1], the “Selectivity TRKA/JH2 V617F” value is on record as “****** (selectivity of >12500-fold)”. Also, in the assay with FLT3 [4], the “Selectivity FLT3/JH2 V617F” value is reported as “****** (selectivity of >12500-fold)”.
Consider `COC(=O)N[C@@H]1CC[C@@H](n2c(=O)n(C)c3cnc4[nH]c(-c5ccc(C(=O)NC6CC6(F)F)c(F)c5)c(-c5ccc6c(cnn6C(C)C)c5)c4c32)C1` (stereo partly drawn) [Example 9, Methyl ((1R,3R)-3-(7-(4-((2,2-difluorocyclopropyl)carbamoyl)-3-fluorophenyl)-8-(1-isopropyl-1H-indazol-5-yl)-3-methyl-2-oxo-3,6-dihydroimidazo[4,5-d]pyrrolo[2,3-b]pyridin-1(2H)-yl)cyclopentyl)carbamate], for which the IC50 is greater than 2500 nM on TRKA [5], no more than 10 nM in assay [2], 5 to 7.5 µM in assay [3] and greater than 2500 nM against FLT3 [6]. For the same compound, the “Selectivity TRKA/JH2 V617F” value with TRKA [1] is listed as “****** (selectivity of >12500-fold)”. In addition, the “Selectivity FLT3/JH2 V617F” value with FLT3 [4] is recorded as “****** (selectivity of >12500-fold)”.
Consider `COC(=O)N[C@@H]1CC[C@@H](n2c(=O)n(C)c3cnc4[nH]c(-c5ccc(C(=O)NC6CC6C(F)(F)F)c(F)c5)c(-c5ccc6c(cnn6C(C)C)c5)c4c32)C1` (stereo partly drawn) [Example 10, Methyl ((1R,3R)-3-(7-(3-fluoro-4-((2-(trifluoromethyl)cyclopropyl)carbamoyl)phenyl)-8-(1-isopropyl-1H-indazol-5-yl)-3-methyl-2-oxo-3,6-dihydroimidazo[4,5-d]pyrrolo[2,3-b]pyridin-1(2H)-yl)cyclopentyl)carbamate], for which the IC50 was greater than 2500 nM against TRKA [5], no more than 10 nM in assay [2], greater than 7.5 µM in assay [3] and greater than 2500 nM against FLT3 [6]. For the same compound, the “Selectivity TRKA/JH2 V617F” value in the assay on TRKA [1] is listed as “****** (selectivity of >12500-fold)”. Moreover, in the assay on FLT3 [4], the “Selectivity FLT3/JH2 V617F” value is given as “****** (selectivity of >12500-fold)”.
In the case of `COC(=O)N[C@@H]1CC[C@@H](n2c(=O)n(C)c3cnc4[nH]c(-c5ccc(C(=O)NCC(F)(F)F)c(F)c5)c(-c5ccc6c(cnn6C(C)C)c5)c4c32)C1` [Example 11, Methyl ((1R,3R)-3-(7-(3-fluoro-4-((2,2,2-trifluoroethyl)carbamoyl)phenyl)-8-(1-isopropyl-1H-indazol-5-yl)-3-methyl-2-oxo-3,6-dihydroimidazo[4,5-d]pyrrolo[2,3-b]pyridin-1(2H)-yl)cyclopentyl)carbamate], the IC50 is greater than 2500 nM against TRKA [5], no more than 10 nM in assay [2], greater than 7.5 µM in assay [3] and greater than 2500 nM at FLT3 [6]. For the same compound, the “Selectivity TRKA/JH2 V617F” value with TRKA [1] was “****** (selectivity of >12500-fold)”. Moreover, in the assay with FLT3 [4], the “Selectivity FLT3/JH2 V617F” value was “****** (selectivity of >12500-fold)”.
For `CNC(=O)c1ccc(-c2[nH]c3ncc4c(c3c2-c2ccc3c(cnn3C(C)C)c2)n([C@@H]2CC[C@@H](NC(=O)OC)C2)c(=O)n4C)cc1F` [Example 12, Methyl ((1R,3R)-3-(7-(3-fluoro-4-(methylcarbamoyl)phenyl)-8-(1-isopropyl-1H-indazol-5-yl)-3-methyl-2-oxo-3,6-dihydroimidazo[4,5-d]pyrrolo[2,3-b]pyridin-1(2H)-yl)cyclopentyl)carbamate], the IC50 is greater than 2500 nM on TRKA [5], no more than 10 nM in assay [2], greater than 7.5 µM in assay [3] and greater than 2500 nM on FLT3 [6]. Further, the “Selectivity TRKA/JH2 V617F” value in the assay with TRKA [1] is given as “****** (selectivity of >12500-fold)”. In the assay on FLT3 [4], the “Selectivity FLT3/JH2 V617F” value is “****** (selectivity of >12500-fold)”.
In the case of `COC(=O)N[C@@H]1CC[C@@H](n2c(=O)n(C)c3cnc4[nH]c(-c5ccc(C(=O)NC6(C(F)(F)F)CC6)c(F)c5)c(-c5ccc6c(cnn6C(C)C)c5)c4c32)C1` [Example 13, Methyl ((1R,3R)-3-(7-(3-fluoro-4-((1-(trifluoromethyl)cyclopropyl)carbamoyl)phenyl)-8-(1-isopropyl-1H-indazol-5-yl)-3-methyl-2-oxo-3,6-dihydroimidazo[4,5-d]pyrrolo[2,3-b]pyridin-1(2H)-yl)cyclopentyl)carbamate], the IC50 against TRKA [5] was greater than 2500 nM; in assay [2], no more than 10 nM; in assay [3], 5 to 7.5 µM; against FLT3 [6] it was greater than 2500 nM. Besides, in the assay on TRKA [1], the “Selectivity TRKA/JH2 V617F” value is “***** (selectivity of >5000-fold to ≤12500-fold)”. Also, the “Selectivity FLT3/JH2 V617F” value with FLT3 [4] is reported as “****** (selectivity of >12500-fold)”.

Source of the values: patent publication US20250092044A1, “Kinase Inhibitors” (Incyte Corporation, priority 2023, published 2025).
